The results in this text go back to PubChem BioAssay AID1996.

For orientation: solubility (kinetic) means the concentration staying in solution when a stock, usually in DMSO, is diluted into the medium.

Each structure is given as a SMILES string. Converted amounts (≈) assume the structure as drawn.

For the series the following is noted: buffer; pH 7.4; 200.0 µM.
Compound `CCn1c(SCc2ccccc2)nc2cc(OC)c(OC)cc2c1=O` gave a kinetic solubility below 0.4 µg/mL.

Compound `CC(C)CC(=O)NC(=S)Nc1ccccc1N1CCCC1` gave a solubility (kinetic) of 4 µg/mL (≈ 13.1 µM).

In the case of `Cc1ccccc1C(=O)NCCNC(=O)c1ccccn1`, the solubility (kinetic) came out at 39.3 µg/mL (≈ 139 µM).

`O=[N+]([O-])c1ccc2nc(-c3cccnc3)[nH]c2c1` gave a kinetic solubility above 36 µg/mL.

In the case of `Cc1csc(NC(=O)c2ccc(Br)s2)n1`, the kinetic solubility was 24.9 µg/mL (≈ 82.1 µM).

Compound `Cl.c1ccc([C@H]2CN3CCSC3=N2)cc1` yielded a solubility (kinetic) above 36.1 µg/mL.

Turning to `COc1cccc(N2C(=O)c3cccnc3C2O)c1` (stereo unspecified), the kinetic solubility is 34.4 µg/mL (≈ 134 µM).

For the compound `CN(C(=O)c1cc(-c2ccccc2)on1)C1CCCCC1`, the solubility (kinetic) worked out at 9.7 µg/mL (≈ 34.1 µM).

In turn, `CN(c1ccccc1)S(=O)(=O)c1cccc(C(=O)NCC(=O)Nc2ccc(F)c(F)c2F)c1` registered a solubility (kinetic) of 5.3 µg/mL (≈ 11.1 µM).

The compound `CN(CC(=O)NCC1COc2ccccc2O1)S(=O)(=O)c1ccc(Cl)cc1` (stereo unspecified) yielded a solubility (kinetic) of 17.9 µg/mL (≈ 43.6 µM).

`O=C(/C=C/c1ccco1)Oc1cccc2cccnc12`: the solubility (kinetic) amounted to 27.1 µg/mL (≈ 102 µM). Compared with the last compound, the solubility kinetic is about 1.5-fold higher.

With `O=[N+]([O-])c1cc(CS(=O)(=O)Oc2ccc(Cl)cc2)c(O)c([N+](=O)[O-])c1`, the solubility (kinetic) is above 58.3 µg/mL.

For `CSc1ccccc1C(=O)C1CCCN(S(=O)(=O)N(C)C)C1` (stereo unspecified), the kinetic solubility was above 51.4 µg/mL.

In turn, `N#Cc1ccc(NC(=S)NCCN2CCOCC2)cc1` returned a solubility (kinetic) above 43.6 µg/mL.

Compound `O=C(O)CN1C(=O)C(=O)N(Cc2ccccc2F)C1=O` displayed a solubility (kinetic) above 42 µg/mL.

`COc1ccc(Nc2nc(N3CCOCC3)nc(N3CCOCC3)n2)cc1` displayed a solubility (kinetic) of 1.4 µg/mL (≈ 3.76 µM).

For `CC1CC(C)CN(c2ccc([N+](=O)[O-])nc2)C1` (stereo unspecified), the kinetic solubility worked out at 28.6 µg/mL (≈ 122 µM).

`COc1ccccc1CC(=O)Nc1cccc2ccccc12` returned a solubility (kinetic) of 2.5 µg/mL (≈ 8.58 µM). Against the preceding compound, the solubility kinetic is about 11-fold lower.

Compound `CS/C(N)=N/C(=S)Nc1cccc(Cl)c1` displayed a solubility (kinetic) of 31.4 µg/mL (≈ 121 µM).

The compound `O=C(COC(=O)/C=C/c1ccc(OC(F)F)cc1)Nc1ccc2[nH]c(=O)[nH]c2c1` registered a solubility (kinetic) of 5.3 µg/mL (≈ 13.1 µM).

The compound `CSc1ncccc1C(=O)OCC(=O)Nc1ccc2c(c1)OCO2` registered a kinetic solubility of 2.7 µg/mL (≈ 7.8 µM). This solubility kinetic lies about 2-fold lower than the previous one.

In the case of `O=C1Nc2ccc(Cl)cc2C(=O)C1(F)c1ccccc1` (stereo unspecified), the kinetic solubility amounted to 1.7 µg/mL (≈ 5.87 µM). Compared with the last compound, the solubility kinetic is about 1.6-fold lower.

Regarding `COc1ccc(C2CC(=O)NC(=O)C2)cc1`, the kinetic solubility came out at 22.3 µg/mL (≈ 102 µM). This solubility kinetic lies about 13-fold higher than the previous one.

Compound `O=S(=O)(NCCc1ccccc1)c1ccc(F)cc1` displayed a solubility (kinetic) of 40.9 µg/mL (≈ 146 µM).

For the compound `Cc1cccc(C(=O)Nc2cccnc2Cl)c1`, the solubility (kinetic) is above 37 µg/mL.

For `CCOc1ccc(C(C)NC(=S)NCc2ccc(F)cc2)cc1` (stereo unspecified), the kinetic solubility came to 2.8 µg/mL (≈ 8.42 µM).

Regarding `O=C(COC(=O)c1ccccc1O)NCc1ccccc1Cl`, the kinetic solubility worked out at 5 µg/mL (≈ 15.6 µM).

`COc1cc(OC)c(NC(C)C(=O)N2CCCC2)cc1Cl` (stereo unspecified) returned a kinetic solubility of 45.1 µg/mL (≈ 144 µM).

For the compound `CCC(=O)c1c(NC)cc(C)oc1=O`, the kinetic solubility is above 29.3 µg/mL.

In turn, `Nc1ncnc2c1ncn2[C@@H]1O[C@H](CO)[C@@H](O)[C@H]1O` showed a kinetic solubility above 40.1 µg/mL.

Consider `CCC(C(=O)OCCOCCN(CC)CC)c1ccccc1` (stereo unspecified), for which the solubility (kinetic) turned out to be 41.1 µg/mL (≈ 134 µM).

`Cc1c(C=Nc2ccc(S(=O)(=O)N(C)C)cc2)c(O)[nH]c(=O)c1C#N`: the solubility (kinetic) was 24.7 µg/mL (≈ 68.5 µM).

The compound `COc1ccc(C(=O)NC(C)CCc2ccccc2)cc1[N+](=O)[O-]` (stereo unspecified) displayed a kinetic solubility of 20.5 µg/mL (≈ 62.4 µM).

Compound `COc1cc(NC(=O)c2cc(C)no2)c(OC)cc1Cl` displayed a kinetic solubility of 1.8 µg/mL (≈ 6.07 µM).

In turn, `Cc1cc(C)c(C(N)=O)c(SCC(=O)c2cc(C)n(-c3cc(C)on3)c2C)n1` displayed a kinetic solubility of 1.9 µg/mL (≈ 4.77 µM).

The compound `COc1cccc(C(=O)Nc2ccncc2)c1OC` returned a solubility (kinetic) above 38.7 µg/mL.

For the compound `COC(=O)C1=C(N)Oc2c(oc(CO)cc2=O)C1c1ccc(F)cc1` (stereo unspecified), the solubility (kinetic) is above 52.1 µg/mL.

In turn, `COC(=O)C1CCN(c2ccc([N+](=O)[O-])cc2[N+](=O)[O-])CC1` came in with a solubility (kinetic) above 46.4 µg/mL.

The compound `O=C(O)[C@H](Cc1ccccc1)NC(=O)N1CCN(c2ccccc2)CC1` displayed a solubility (kinetic) of 51.8 µg/mL (≈ 147 µM).

The compound `CC(=O)CC1=NC(C)(C)Cc2ccccc21` gave a kinetic solubility of 17.2 µg/mL (≈ 79.9 µM).

For `c1ccc(CCCc2nc(-c3cccnc3)no2)cc1`, the kinetic solubility was found to be 30.5 µg/mL (≈ 115 µM).
